Measured values: publication PMC4705222, “Identification of a Catalase-Phenol Oxidase in Betalain Biosynthesis in Red Amaranth (Amaranthus cruentus)” (Frontiers in Plant Science, 2016)

What was measured:
[1] = biological target: T1, AcCATPO (Amaranthus cruentus, UniProt A0A2Z0PTH5); assay: monophenolase activity toward L-tyrosine, absorbance […] nm; format: biochemical; details: L-tyrosine substrate, 0.057 mM L-DOPA cofactor, no added CuSO4, chelator
T1 sequence (A0A2Z0PTH5 1-492): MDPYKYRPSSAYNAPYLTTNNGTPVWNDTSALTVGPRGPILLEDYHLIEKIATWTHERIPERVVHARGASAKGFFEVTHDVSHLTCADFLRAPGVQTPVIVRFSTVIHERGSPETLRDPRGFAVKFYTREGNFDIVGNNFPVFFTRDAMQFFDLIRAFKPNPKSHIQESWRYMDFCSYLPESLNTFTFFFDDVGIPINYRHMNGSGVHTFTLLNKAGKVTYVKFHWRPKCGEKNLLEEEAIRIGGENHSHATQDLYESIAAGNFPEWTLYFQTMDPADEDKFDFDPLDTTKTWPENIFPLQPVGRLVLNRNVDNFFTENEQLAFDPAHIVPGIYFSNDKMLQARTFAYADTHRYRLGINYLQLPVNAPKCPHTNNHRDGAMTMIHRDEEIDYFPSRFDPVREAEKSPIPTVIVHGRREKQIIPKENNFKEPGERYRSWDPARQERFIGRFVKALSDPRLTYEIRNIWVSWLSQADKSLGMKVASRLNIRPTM

[2] = biological target: T1, AcCATPO; assay: diphenolase activity toward L-DOPA, absorbance […] nm and in-gel staining; format: biochemical; details: 1 mM L-DOPA substrate, pH 8.0, 60 °C, chelator
[3] = biological target: T1, AcCATPO; assay: catalase activity, H2O2 decrease at […] nm; format: biochemical; details: not significant, H2O2 substrate (14 mM in standard assay), pH 7.0, 20 °C
[4] = biological target: T1, AcCATPO; assay: catalase activity, H2O2 decrease at […] nm; format: biochemical; details: read-out: % inhibition at 1 mM
[5] = biological target: T1, AcCATPO; assay: monophenolase activity toward L-tyrosine, absorbance […] nm; format: biochemical; details: activation, not inhibition, L-tyrosine substrate, 0.057 mM L-DOPA cofactor, no added CuSO4
[6] = biological target: T1, AcCATPO; assay: diphenolase activity toward L-DOPA, absorbance […] nm and in-gel staining; format: biochemical; details: activation, not inhibition, 1 mM L-DOPA substrate, pH 8.0, 60 °C
[7] = biological target: T1, AcCATPO; format: biochemical
[8] = biological target: T1, AcCATPO; assay: monophenolase activity toward L-tyrosine, absorbance […] nm; format: biochemical; details: L-tyrosine substrate, 0.057 mM L-DOPA cofactor, no added CuSO4
[9] = substrate: N[C@@H](Cc1ccc(O)cc1)C(=O)O; assay: purified protein; format: biochemical, Amaranthus cruentus; details: monophenolase, 0.057 mM L-DOPA as cofactor, pH 8.0, 60 °C
[10] = substrate: N[C@@H](Cc1ccc(O)c(O)c1)C(=O)O; assay: purified protein; format: biochemical, Amaranthus cruentus; details: diphenolase, pH 8.0, 60 °C

Q: Which results are given for CCN(CC)C(=S)S [sodium diethyldithiocarbamate]?
A: % loss of activity at 1 mM [1]: ~ 80%; % loss of activity at 1 mM [2]: ~ 99%

Q: With O=C(O)c1ccccc1O [salicylic acid] as the molecule, how does the “% decrease at 1 mM” value [3] read?
A: < 25%

Q: With NNC(=O)c1ccncc1 [isoniazid] as the molecule, how does the inhibition at 1000 µM [4] read?
A: ~90%

Q: With O=c1cccccc1O [tropolone] as the molecule, how does the “% increase of activity at 1 mM” value [5] read?
A: ~ 25%

Q: What about the “% increase of activity at 1 mM” value [6] of the same molecule?
A: ~ 55%

Q: With NC(=S)Nc1ccccc1 [phenylthiocarbamide] as the molecule, how does the “% inhibition at 1 mM” value [7] read?
A: all inhibitors except tropolone, had a significantly inhibitory effect on the monophenolase activity

Q: How did the “% decrease at 1 mM” value [8] turn out when O=c1cc(CO)occ1O [kojic acid] was run?
A: ~ 15%

B1: AcCATPO (Amaranthus cruentus) (protein)
chain: T1 sequence (A0A2Z0PTH5 1-492)
notes: native, purified from red-violet leaves by native-PAGE gel slice; homotrimer ca. 170 kDa, subunit ca. 58 kDa; cDNA encodes 492 residues; peptides GPILLEDYHLIEK, APGVQTPVIVR, FSTVIHER, ENNFKEPGER, TFAYADTHR
Q: For B1, which Km [9] is on record?
A: 200 µM

Q: What about the Vmax [9] of the same molecule?
A: 0.079 µM/min

Q: What about the kcat [9] of the same molecule?
A: 0.04 s⁻¹

Q: And the kcat/Km [9]?
A: 200 M⁻¹ s⁻¹

Q: What about the Km [10] of the same molecule?
A: 600 µM

Q: What about the Vmax [10] of the same molecule?
A: 0.75 µM/min

Q: What about the kcat [10] of the same molecule?
A: 0.36 s⁻¹

Q: And the kcat/Km [10]?
A: 600 M⁻¹ s⁻¹
